Test [1] has as its system Escherichia coli. As to the kind of experiment: Antibacterial activity against Escherichia coli assessed as zone of inhibition at 50 mg/ml cup plate assay. It counts as functional. The conditions noted are these: read-out: IZ.
For test [2], the system named is Mycobacterium tuberculosis. The test can be described thus: Antimycobacterial activity against Mycobacterium tuberculosis H37Rv assessed as bacterial growth inhibition by LJ slant assay. The test is classed as functional.
Test [3] has as its system Mycobacterium tuberculosis. The test can be described thus: Antimycobacterial activity against extensive drug Mycobacterium tuberculosis assessed as bacterial growth inhibition by LJ slant assay. The test is classed as functional.
Test [4] has as its system Mycobacterium tuberculosis. The test can be described thus: Potency index, ratio of ciprofloxacin MIC to test compound MIC for antimycobacterial activity against Mycobacterium tuberculosis H37Rv assessed as bacterial growth inhibition by LJ slant assay. It counts as functional.
Test [5] has as its system Mycobacterium tuberculosis. As to the kind of experiment: Antimycobacterial activity against multidrug Mycobacterium tuberculosis assessed as bacterial growth inhibition by LJ slant assay. The test is classed as functional.
For test [6], the system named is Staphylococcus aureus. As to the kind of experiment: Antibacterial activity against Staphylococcus aureus assessed as zone of inhibition at 50 mg/ml cup plate assay. The test is classed as functional. The conditions noted are these: read-out: IZ.
The subject of test [7] is Escherichia coli. The test can be described thus: Antibacterial activity against Escherichia coli assessed as bacterial growth inhibition measured after 24 hrs by agar cup diffusion assay. The test is classed as functional.
Test [8] deals with Staphylococcus aureus. The test can be described thus: Antibacterial activity against Staphylococcus aureus assessed as bacterial growth inhibition measured after 24 hrs by agar cup diffusion assay. The test is classed as functional.
For the next test, the system named is Candida albicans. As to the kind of experiment: Antifungal activity against Candida albicans assessed as fungal growth inhibition measured after 24 hrs by agar cup diffusion assay. It counts as functional.
Test [9] has as its system Pseudomonas aeruginosa. As to the kind of experiment: Antibacterial activity against Pseudomonas aeruginosa assessed as bacterial growth inhibition measured after 24 hrs by agar cup diffusion assay. The test is classed as functional.
The subject of test [10] is Escherichia coli. As to the kind of experiment: Antibacterial activity against Escherichia coli ATCC 25922 assessed as bacterial growth inhibition by agar disc diffusion assay. The test is classed as functional. In general terms: Agar diffusion results depend on both activity and mobility in agar.
In test [11] the test system is Escherichia coli. As to the kind of experiment: Antibacterial activity against Escherichia coli clinical isolate 1 assessed as bacterial growth inhibition by agar disc diffusion assay. The test is classed as functional.
Test [12] relates to Pseudomonas aeruginosa. As to the kind of experiment: Antibacterial activity against Pseudomonas aeruginosa ATCC 27853 assessed as bacterial growth inhibition by agar disc diffusion assay. It counts as functional.
Test [13] has as its system Pseudomonas aeruginosa. As to the kind of experiment: Antibacterial activity against Pseudomonas aeruginosa clinical isolate 1 assessed as bacterial growth inhibition by agar disc diffusion assay. The test is classed as functional.
The test system of test [14] is Staphylococcus aureus. As to the kind of experiment: Antibacterial activity against Staphylococcus aureus ATCC 25923 assessed as bacterial growth inhibition by agar disc diffusion assay. It counts as functional.
Test [15] relates to Fusarium oxysporum f. sp. lycopersici. As to the kind of experiment: Antifungal activity against Fusarium oxysporum f. sp. lycopersici assessed as fungal growth inhibition measured after 7 days by agar disc diffusion assay. The test is classed as functional. Particulars: 168 h, time 7 day.
Test [16] relates to Staphylococcus aureus. As to the kind of experiment: Antibacterial activity against Staphylococcus aureus clinical isolate 1 assessed as bacterial growth inhibition by agar disc diffusion assay. The test is classed as functional.
For the next test, the system named is Alternaria. The test can be described thus: Antifungal activity against Alternaria assessed as fungal growth inhibition measured after 7 days by agar disc diffusion assay. Particulars: 168 h, time 7 day. The test is classed as functional.
A further test deals with Enterococcus faecalis. As to the kind of experiment: Antibacterial activity against Enterococcus faecalis assessed as zone of inhibition at 50 mg/ml by agar well diffusion assay. The test is classed as functional. Particulars: read-out: IZ.
Test [17] deals with Staphylococcus aureus. As to the kind of experiment: Antibacterial activity against Staphylococcus aureus assessed as zone of inhibition at 50 mg/ml by agar well diffusion assay. The test is classed as functional. Particulars: read-out: IZ.
A further test relates to Streptococcus pneumoniae. The test can be described thus: Antibacterial activity against Streptococcus pneumoniae assessed as zone of inhibition at 50 mg/ml by agar well diffusion assay. It counts as functional. The conditions noted are these: read-out: IZ.
Test [18] has as its system Escherichia coli. As to the kind of experiment: Antibacterial activity against Escherichia coli assessed as zone of inhibition at 50 mg/ml by agar well diffusion assay. It counts as functional. The conditions noted are these: read-out: IZ.
The subject of test [19] is Mycobacterium tuberculosis. The test can be described thus: Antimycobacterial activity against Mycobacterium tuberculosis H37Rv assessed as bacterial growth inhibition. The test is classed as functional.
For test [20], the system named is Mycobacterium tuberculosis. The test can be described thus: Antimycobacterial activity against Mycobacterium tuberculosis H37Rv assessed as zone of inhibition at 50 mg/ml by agar well diffusion assay. The test is classed as functional. Particulars: read-out: IZ.
In a further test the test system is WRL68. The test can be described thus: Anticancer activity against human WRL68 cell assessed as cell growth inhibition measured after 24 to 72 hrs by MTT assay. The test is classed as functional, cell-based.
Test [21] relates to Pseudomonas aeruginosa. The test can be described thus: Antibacterial activity against Pseudomonas aeruginosa ATCC 11632 assessed as bacterial growth inhibition measured after 24 to 48 hrs by agar dilution assay. It counts as functional. Particulars: time 24-48 hrs. Background: In agar dilution, organisms are placed on agar that contains the substance at set levels.
The subject of test [22] is Escherichia coli. The test can be described thus: Antibacterial activity against Escherichia coli ATCC 10536 assessed as bacterial growth inhibition measured after 24 to 48 hrs by agar dilution assay. It counts as functional. Particulars: time 24-48 hrs.
The subject of a further test is MCF7. As to the kind of experiment: Anticancer activity against human MCF7 cell assessed as cell growth inhibition measured after 24 to 72 hrs by MTT assay. The test is classed as functional, cell-based.
For another test, the system named is HT-29. As to the kind of experiment: Anticancer activity against human HT-29 cell assessed as cell growth inhibition measured after 24 to 72 hrs by MTT assay. The test is classed as functional, cell-based. Background: Formazan colour is commonly taken as a measure of viable cells.
Test [23] in a line: Anticancer activity against EAC cell assessed as cell growth inhibition measured after 24 to 72 hrs by MTT assay. It counts as functional, cell-based. Particulars: Ehrlich.
The subject of test [24] is Escherichia coli. The test can be described thus: Antibacterial activity against Escherichia coli assessed as bacterial growth inhibition by serial dilution method. It counts as functional.
In test [25] the test system is Staphylococcus aureus. As to the kind of experiment: Antibacterial activity against Staphylococcus aureus assessed as bacterial growth inhibition by serial dilution method. The test is classed as functional.
Test [26] relates to Klebsiella pneumoniae. The test can be described thus: Antibacterial activity against Klebsiella pneumoniae assessed as bacterial growth inhibition by serial dilution method. It counts as functional.
The subject of test [27] is Pseudomonas aeruginosa. As to the kind of experiment: Antibacterial activity against Pseudomonas aeruginosa assessed as bacterial growth inhibition by serial dilution method. It counts as functional.
Test [28] has as its system Acinetobacter baumannii. As to the kind of experiment: Antibacterial activity against Acinetobacter baumannii assessed as bacterial growth inhibition by serial dilution method. It counts as functional.
For test [29], the system named is Escherichia coli. The test can be described thus: Antibacterial activity against Escherichia coli assessed as bacterial growth inhibition by broth microdilution assay. It counts as functional.
For test [30], the system named is Acinetobacter baumannii. As to the kind of experiment: Antibacterial activity against Acinetobacter baumannii assessed as bacterial growth inhibition by broth microdilution assay. The test is classed as functional.
Test [31] concerns Pseudomonas aeruginosa. The test can be described thus: Antibacterial activity against Pseudomonas aeruginosa assessed as bacterial growth inhibition by broth microdilution assay. The test is classed as functional.
In test [32] the test system is Klebsiella pneumoniae. As to the kind of experiment: Antibacterial activity against Klebsiella pneumoniae assessed as bacterial growth inhibition by broth microdilution assay. It counts as functional.
The test system of another test is Aspergillus niger. As to the kind of experiment: Antifungal activity against Aspergillus niger assessed as fungal growth inhibition by agar cup diffusion assay. It counts as functional.
For the next test, the system named is Aspergillus fumigatus. As to the kind of experiment: Antifungal activity against Aspergillus fumigatus assessed as fungal growth inhibition by agar cup diffusion assay. It counts as functional.

For orientation: MIC means the least concentration at which growth counts as inhibited. The term IC50 denotes the concentration needed to halve the response being measured.

In brackets after ≈: the same amount, converted by molar mass.

With `O=c1c(-c2nnc(S)o2)cn(C2CC2)c2cc(N3CCNCC3)c(F)cc12`, the zone of inhibition at 50000 µg/mL in the test with Escherichia coli [1] amounted to 12 mm; in the test on Staphylococcus aureus [6] it was 13 mm. Also, the MIC in test [2], in [3] and in [5] was 0.063 µg/mL (≈ 0.163 µM) each time. Moreover, in test [4], the Ratio result is “>=32”.
Take `O=C(/C=C/c1ccc(F)cc1)c1ccc(NC(=O)N2CCN(c3cc4c(cc3F)c(=O)c(C(=O)O)cn4C3CC3)CC2)cc1`: the minimal inhibitory concentration (MIC) in the test with Escherichia coli [7] was 0.53 µg/mL (≈ 0.885 µM); in the test on Staphylococcus aureus [8], 0.53 µg/mL (≈ 0.885 µM); in the test with Candida albicans it was 2.03 µg/mL (≈ 3.39 µM); with Pseudomonas aeruginosa [9] it was 0.53 µg/mL (≈ 0.885 µM).
`CCOP(=O)(OCC)C(NS(=O)(=O)Nc1ccc(F)cc1)c1cc2cccc(C)c2[nH]c1=O` (configuration not stated): the MIC turned out to be 0.5 µg/mL (≈ 1.01 µM) in the test with Escherichia coli [10]; 0.5 µg/mL (≈ 1.01 µM) in the test on Escherichia coli [11]; 0.5 µg/mL (≈ 1.01 µM) in the test on Pseudomonas aeruginosa [12]; 0.5 µg/mL (≈ 1.01 µM) in the test with Pseudomonas aeruginosa [13]; 0.5 µg/mL (≈ 1.01 µM) in the test on Staphylococcus aureus [14]; 0.125 µg/mL (≈ 0.251 µM) in test [15]. Also, the MIC came to 0.5 µg/mL (≈ 1.01 µM) in the test with Staphylococcus aureus [16] and 0.125 µg/mL (≈ 0.251 µM) with Alternaria.
Turning to `CCn1cc(-c2nnc(S(=O)(=O)Cc3ccc(OC)cc3)o2)c(=O)c2cc(F)c(N3CCN(C)CC3)cc21`, the zone of inhibition at 50000 µg/mL (with Enterococcus faecalis; in the test with Staphylococcus aureus [17]; in the test with Streptococcus pneumoniae; in the test on Escherichia coli [18]; in test [20]) was 26 mm throughout. The MIC in [19] is 16.2 µg/mL (≈ 29.9 µM).
Regarding `O=C(CNc1ccc(-c2nc3ccc(Cl)c(Cl)c3s2)cc1)c1c(O)c2ccccc2n(-c2ccccc2)c1=O`, the 50% inhibitory concentration (IC50) (in the test with WRL68; with MCF7; in the test with HT-29; in [23]) was 398 nM each time. Moreover, the MIC with Pseudomonas aeruginosa [21] was 1 µg/mL (≈ 1.75 µM); in the test with Escherichia coli [22], 0.5 µg/mL (≈ 0.873 µM).
In the case of `Cc1ccc(/N=C(\N2CCN(c3cc4c(cc3F)c(=O)c(C(=O)O)cn4C3CC3)CC2)C(F)(F)F)cc1`, the MIC with Escherichia coli [24], in the test with Staphylococcus aureus [25], in the test on Klebsiella pneumoniae [26], with Pseudomonas aeruginosa [27] and with Acinetobacter baumannii [28] was 0.039 µg/mL (≈ 0.0755 µM) each time.
Turning to `Cc1[nH]c(C(=O)Nc2nc3ccc(NC(=O)CCN4CCN(c5cc6c(cc5F)c(=O)c(C(=O)O)cn6C5CC5)CC4)cc3s2)c(Cl)c1Cl`, the MIC in the test with Escherichia coli [29] was determined as 0.004 µg/mL (≈ 0.0055 µM); in the test on Acinetobacter baumannii [30], 0.25 µg/mL (≈ 0.344 µM); in the test on Pseudomonas aeruginosa [31], 0.25 µg/mL (≈ 0.344 µM); in the test with Klebsiella pneumoniae [32] it was 0.25 µg/mL (≈ 0.344 µM).
In the case of `CC(=O)N1CCN(c2ccc(OCC3COC(Cn4ccnc4)(c4ccc(Cl)cc4Cl)O3)cc2)CC1` (configuration not stated) [KETOCONAZOLE], the MIC in the test with Aspergillus niger is 10.8 µg/mL (≈ 20.3 µM); with Candida albicans, 2.6 µg/mL (≈ 4.89 µM); with Aspergillus fumigatus, 11.4 µg/mL (≈ 21.5 µM).

For the origin of these results see ChEMBL document CHEMBL5360532, “Current scenario of quinolone hybrids with potential antibacterial activity against ESKAPE pathogens” (Eur J Med Chem, 2023).
